Results published in patent EP0707593B1, “ORALLY ADMINISTERABLE ESTERS OF 14 ALPHA,15 ALPHA-METHYLENE-OESTRADIOL WITH AN OESTROGENIC ACTION” (Jenapharm GmbH & Co. KG, priority 1993, dated 1995).

Test system: adulte ovarektomierte Ratten
Assay: Uterus wet weight after single oral application in adult ovariectomized rats (oral estrogenic effect, dose-response analysis)
Assay type: in vivo
Details: suspended in Myrj, 3-100 µg/T (dose refers to steroid part), uterus wet weight on day 4, Abbildungen 1 und 2
Excerpt: Als Vergleiche dienten Ethinylestradiol (EE) und 14α,15α-Methylen-estra-1,3,5(10)-trien-3,17β-diol (Code: J824) Die Ermittlung der Uterusfeuchtmassen nach einmaliger oraler Substanzapplikation sowie die Dosis-Wirkungsanalysen der Substanzen wurde zur Bemessung einer Estrogenwirkung herangezogen.
Sowohl Uterus als auch Vagina zeigen bei ovarektomierten Ratten eine von der Estrogendosis abhängige Gewichtszunahme. Diese ist auf eine Proliferation der Schleimhäute, erhöhte Proteinsynthese, aber auch auf eine Wassereinlagerung zurückzuführen. Für die der Erfindung zu Grunde liegenden Untersuchungen wurden adulte ovarektomierte Ratten eingesetzt. In einer kontrollierten Studie wurden Ester des 14α,15α-Methylen-estradiols auf estrogene Wirkung bei oraler Applikation gegen Ethinylestradiol(EE) und 14α,15α-Methylen-estradiol (J 824) geprüft. Die angegebenen Dosierungen beziehen sich auf den Steroidkern der Moleküle. Die Testsubstanzen wurden einmalig oral appliziert. Als Parameter einer Estrogenwirkung wurden am 4. Tag des Versuches die Uterusgewichte ermittelt (Feuchtgewichte).
Weibliche Ratten [Stamm: BOR:WISW (SPF/Cpb)], Körpermasse zu Versuchsbeginn 200 - 240 g wurden ovarektomiert und 10 Tage nach diesem Eingriff randomisiert den Versuchsgruppen zugeordnet. Dann erfolgte die einmalige orale Applikation (Tag 1) der Prüfsubstanzen. Am 4. […]

SMILES: C[C@]12CC[C@@H]3c4ccc(O)cc4CC[C@H]3[C@@]13C[C@H]3C[C@@H]2O [J824, 14α,15α-Methylen-estra-1,3,5(10)-trien-3,17β-diol]
- orale Estrogenwirkung (Uterusfeuchtmassen): bessere estrogene Wirkung des J824 gegenüber EE
